Measured values from publication PMC10529912 (European journal of medicinal chemistry, 2023).
Like-named read-outs stand apart in the source and are kept apart here.

Legend:
[1] = molecular target: SARS-CoV-2 main protease (Mpro) (Severe acute respiratory syndrome coronavirus 2, UniProt P0DTD1); test: SARS-CoV-2 Mpro FRET enzymatic assay; assay type: biochemical
SARS-CoV-2 Mpro = SARS-CoV-2 Mpro (Severe acute respiratory syndrome coronavirus 2, UniProt P0DTD1); test: Mpro enzyme kinetics, Morrison plot Ki determination; assay type: biochemical
[2] = system: SARS-CoV-2 (isolate USA WA1/2020); assay type: cell-based; settings: read-out: EC50 (antiviral); Calu-3 cells, MOI 0.5, 48 hours

Molecule	IC50 [1]	other results
C#CC(=O)N(c1ccc(-c2ccccc2)cc1)C(C(=O)N[C@@H](C)c1ccccc1)c1cccnc1 (stereo partly drawn) [Jun10221R, N-([1,1’-biphenyl]-4-yl)-N-((S)-2-oxo-2-(((S)-1-phenylethyl)amino)-1-(pyridin-3-yl)ethyl)propiolamide]	20 nM	–
CCCC#CC(=O)N(c1ccc(-c2ccccc2)cc1)C(C(=O)N[C@@H](C)c1ccccc1)c1cccnc1 (stereo partly drawn) [Jun10923, N-([1,1’-biphenyl]-4-yl)-N-(2-oxo-2-(((S)-1-phenylethyl)amino)-1-(pyridin-3-yl)ethyl)hex-2-ynamide]	2510 nM	–
C[C@H](NC(=O)C(c1cccnc1)N(C(=O)C#CC(C)(C)C)c1ccc(-c2ccccc2)cc1)c1ccccc1 (stereo partly drawn) [Jun10925, N-([1,1’-biphenyl]-4-yl)-4,4-dimethyl-N-(2-oxo-2-(((S)-1-phenylethyl)amino)-1-(pyridin-3-yl)ethyl)pent-2-ynamide]	> 20000 nM	–
COc1ccc(/C=C(\C#N)C(=O)N(c2ccc(-c3ccccc3)cc2)C(C(=O)N[C@@H](C)c2ccccc2)c2cccnc2)cc1 (stereo partly drawn) [Jun10963R, (E)-N-([1,1’-biphenyl]-4-yl)-2-cyano-3-(4-methoxyphenyl)-N-((S)-2-oxo-2-(((S)-1-phenylethyl)amino)-1-(pyridin-3-yl)ethyl)acrylamide]	560 nM	Ki (SARS-CoV-2 Mpro): 573 nM
COc1ccc(/C=C(\C#N)C(=O)N(c2ccc(-c3ccccc3)cc2)C(C(=O)N[C@@H](C)c2ccccc2)c2cccnc2)cc1 (stereo partly drawn) [Jun10963S, (E)-N-([1,1’-biphenyl]-4-yl)-2-cyano-3-(4-methoxyphenyl)-N-((R)-2-oxo-2-(((S)-1-phenylethyl)amino)-1-(pyridin-3-yl)ethyl)acrylamide]	> 20000 nM	–
N-([1,1’-biphenyl]-4-yl)-2-cyano-N-((S)-2-oxo-2-(((S)-1-phenylethyl)amino)-1-(pyridin-3-yl)ethyl)acetamide [Jun10541R]	–	Ki (SARS-CoV-2 Mpro; Morrison equation fit, 20 μM FRET substrate, no preincubation): 345 nM; EC50 [2]: 2920 nM; cytotoxicity to Calu-3 cells (Calu-3 cells): not cytotoxic
